Test results taken from US11661426B2, “Imidazole-containing inhibitors of ALK2 kinase” (BioCryst Pharmaceuticals, Inc., priority 2017, dated 2023).

Molecular target: ALK2 (Homo sapiens (Human), UniProt Q04771)
Test: ALK2 inhibition, LanthaScreen Eu Kinase Binding Assay (ThermoFisher Scientific / Life Technologies)
Settings: read-out: Measured Ki (IC50) Value for Compounds: IC50
Description: Biochemical assays to measure the inhibitory effects of the compounds were performed by ThermoFisher Scientific (Life Technologies). ALK2 inhibition was tested using LanthaScreen™ Eu Kinase Binding Assay screening protocol.

ALK2, sequence (Q04771 21-509): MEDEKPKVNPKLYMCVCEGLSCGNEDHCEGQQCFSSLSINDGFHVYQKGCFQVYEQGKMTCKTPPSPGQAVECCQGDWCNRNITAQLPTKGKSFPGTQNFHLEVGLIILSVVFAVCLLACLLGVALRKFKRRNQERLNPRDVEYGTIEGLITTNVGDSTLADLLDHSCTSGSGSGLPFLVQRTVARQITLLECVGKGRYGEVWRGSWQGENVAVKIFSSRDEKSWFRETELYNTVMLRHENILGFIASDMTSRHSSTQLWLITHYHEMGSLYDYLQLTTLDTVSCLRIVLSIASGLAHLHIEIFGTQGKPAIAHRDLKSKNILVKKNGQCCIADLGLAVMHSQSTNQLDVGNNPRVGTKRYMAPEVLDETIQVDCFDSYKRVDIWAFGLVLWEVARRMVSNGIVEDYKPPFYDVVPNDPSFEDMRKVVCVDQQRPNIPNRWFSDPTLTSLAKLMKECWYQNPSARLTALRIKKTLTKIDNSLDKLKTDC

Row | IC50 [nM] | Compound
1 | < 100 | COc1cc(-n2cnc(Nc3ncc4c(n3)CCN(Cc3ccccc3)C4)c2)cc(OC)c1OC [Compound 201b, 6-benzyl-N-(1-(3,4,5-trimethoxyphenyl)-1H-imidazol-4-yl)-5,6,7,8-tetrahydropyrido[4,3-d]pyrimidin-2-amine]
2 | < 100 | COc1cc(-n2cnc(Nc3nc(N4CCC[C@H]4CO)c4ccc(C#N)cc4n3)c2)cc(OC)c1OC [Compound 356b, (S)-4-(2-(hydroxymethyl)pyrrolidin-1-yl)-2-((1-(3,4,5-trimethoxyphenyl)-1H-imidazol-4-yl)amino)quinazoline-7-carbonitrile]
3 | < 100 | COc1cc(-n2cnc(Nc3nc(N4CC5(CC5)C[C@H]4CO)c4cccn4n3)c2)cc(OC)c1OC [Compound 380d, (S)-(5-(2-((1-(3,4,5-trimethoxyphenyl)-1H-imidazol-4-yl)amino)pyrrolo[2,1-f][1,2,4]triazin-4-yl)-5-azaspiro[2.4]heptan-6-yl)methanol]
4 | < 100 | COc1cc(-n2cnc(Nc3nc(N4CC[C@@H](CO)C4)c4cccn4n3)c2)cc(OC)c1OC [Compound 283b, (R)-(1-(2-(1-(3,4,5-trimethoxyphenyl)-1H-imidazol-4-ylamino)pyrrolo[1,2-f][1,2,4]triazin-4-yl)pyrrolidin-3-yl)methanol]
5 | < 100 | OC[C@@H]1CCCN1c1nc(Nc2cn(-c3cccc(OC(F)(F)F)c3)cn2)c2cccn2n1 [Compound 330b, (S)-(1-(4-((1-(3-(trifluoromethoxy)phenyl)-1H-imidazol-4-yl)amino)pyrrolo[2,1-f][1,2,4]triazin-2-yl)pyrrolidin-2-yl)methanol]
6 | < 100 | OCc1ccc(-n2cnc(Nc3nc(N4CCC[C@H]4CO)nn4cccc34)c2)cc1 [Compound 436e, (S)-(1-(4-((1-(4-(hydroxymethyl)phenyl)-1H-imidazol-4-yl)amino)pyrrolo[2,1-f][1,2,4]triazin-2-yl)pyrrolidin-2-yl)methanol]
7 | > 1000 | COC(=O)c1cnc(Nc2nc(N3CCC[C@H]3CO)nn3cccc23)s1 [Compound 455d, (S)-methyl 2-((2-(2-(hydroxymethyl)pyrrolidin-1-yl)pyrrolo[2,1-f][1,2,4]triazin-4-yl)amino)thiazole-5-carboxylate]
8 | 100 to 1000 | OC[C@@H]1CCCN1c1nc(Nc2nccs2)c2cccn2n1 [Compound 455c, (S)-(1-(4-(thiazol-2-ylamino)pyrrolo[2,1-f][1,2,4]triazin-2-yl)pyrrolidin-2-yl)methanol]
9 | 100 to 1000 | COc1cc(-n2cnc(Nc3nc(N4CCC[C@H]4CO)nc4[nH]nc(C)c34)c2)cc(OC)c1OC [Compound 400d, (S)-(1-(3-methyl-4-((1-(3,4,5-trimethoxyphenyl)-1H-imidazol-4-yl)amino)-1H-pyrazolo[3,4-d]pyrimidin-6-yl)pyrrolidin-2-yl)methanol]
10 | < 100 | COc1cc(-n2cnc(Nc3nc4c(c(N5CCCC5)n3)CN(Cc3ccccc3)CC4)c2)cc(OC)c1OC [Compound 224b, 6-benzyl-4-(pyrrolidin-1-yl)-N-(1-(3,4,5-trimethoxyphenyl)-1H-imidazol-4-yl)-5,6,7,8-tetrahydropyrido[4,3-d]pyrimidin-2-amine]
11 | < 100 | COc1cc(-n2cnc(Nc3nc4c(c(N5CCC[C@H]5CO)n3)CCCCC4)c2)cc(OC)c1OC [Compound 398c, (S)-(1-(2-((1-(3,4,5-trimethoxyphenyl)-1H-imidazol-4-yl)amino)-6,7,8,9-tetrahydro-5H-cyclohepta[d]pyrimidin-4-yl)pyrrolidin-2-yl)methanol]
12 | < 100 | COc1cc(-n2cnc(Nc3nc(N4CCC[C@H]4CO)nc4cc(C(F)(F)F)ccc34)c2)cc(OC)c1OC [Compound 284c, (S)-(1-(7-(trifluoromethyl)-4-((1-(3,4,5-trimethoxyphenyl)-1H-imidazol-4-yl)amino)quinazolin-2-yl)pyrrolidin-2-yl)methanol]
13 | > 1000 | Cc1cc(Cl)cc(-c2cnc(Nc3nc(N4CCC[C@H]4CO)nn4cccc34)s2)c1 [Compound 475c, (S)-(1-(4-((5-(3-chloro-5-methylphenyl)thiazol-2-yl)amino)pyrrolo[2,1-f][1,2,4]triazin-2-yl)pyrrolidin-2-yl)methanol]
14 | < 100 | OC[C@@H]1CCCN1c1nc(Nc2cn(-c3ccnc4c(F)cccc34)cn2)c2cccn2n1 [Compound 441e, (S)-(1-(4-((1-(8-fluoroquinolin-4-yl)-1H-imidazol-4-yl)amino)pyrrolo[2,1-f][1,2,4]triazin-2-yl)pyrrolidin-2-yl)methanol]
15 | < 100 | COc1cc(-n2cnc(Nc3nc(N4CCC[C@H]4C(F)(F)F)c4cccn4n3)c2)cc(OC)c1OC [Compound 206b, (S)-4-(2-(trifluoromethyl)pyrrolidin-1-yl)-N-(1-(3,4,5-trimethoxyphenyl)-1H-imidazol-4-yl)pyrrolo[2,1-f][1,2,4]triazin-2-amine]

More lines, now with the values behind:

Row | Compound | IC50 [nM]
16 | OC[C@@H]1CCCN1c1nc(Nc2cn(C3CCCCC3)cn2)c2cccn2n1 [Compound 28c, (S)-(1-(4-((1-cyclohexyl-1H-imidazol-4-yl)amino)pyrrolo[2,1-f][1,2,4]triazin-2-yl)pyrrolidin-2-yl)methanol] | 100 to 1000
17 | OC[C@@H]1CCCN1c1cc(F)cc(-n2cnc(Nc3nc(N4CCC[C@H]4CO)nn4cccc34)c2)c1 [Compound 83c, ((S)-1-(4-((1-(3-fluoro-5-((S)-2-(hydroxymethyl)pyrrolidin-1-yl)phenyl)-1H-imidazol-4-yl)amino)pyrrolo[2,1-f][1,2,4]triazin-2-yl)pyrrolidin-2-yl)methanol] | < 100
18 | COc1cc(-n2cnc(Nc3nc4c(c(N5CCC[C@H]5CO)n3)CCNC4)c2)cc(OC)c1OC [Compound 182d, (S)-(1-(2-((1-(3,4,5-trimethoxyphenyl)-1H-imidazol-4-yl)amino)-5,6,7,8-tetrahydropyrido[3,4-d]pyrimidin-4-yl)pyrrolidin-2-yl)methanol] | < 100
19 | COc1cc(-n2cnc(Nc3nc(N4CCC[C@@H]4CO)nc4cc(N5CCC[C@@H]5CO)ccc34)c2)cc(OC)c1OC [Compound 306a, ((2R,2′R)-1,1′-(4-((1-(3,4,5-trimethoxyphenyl)-1H-imidazol-4-yl)amino)quinazoline-2,7-diyl)bis(pyrrolidine-2,1-diyl))dimethanol] | < 100
20 | Cc1cc2nc(N3CCC[C@H]3CO)nc(Nc3cn(-c4ccc(F)cc4)cn3)c2s1 [Compound 42b, (S)-(1-(4-((1-(4-fluorophenyl)-1H-imidazol-4-yl)amino)-6-methylthieno[3,2-d]pyrimidin-2-yl)pyrrolidin-2-yl)methanol] | < 100
21 | COc1cc(-n2cnc(Nc3nc(N4CCC[C@H]4C(N)=O)nc4cc(OC(C)C)ccc34)c2)cc(OC)c1OC [Compound 171a, (S)-1-(7-isopropoxy-4-((1-(3,4,5-trimethoxyphenyl)-1H-imidazol-4-yl)amino)quinazolin-2-yl)pyrrolidine-2-carboxamide] | < 100
22 | COc1ccc(-n2cnc(Nc3nc(N4CCC[C@H]4CO)nn4cccc34)c2)cc1OC [Compound 73c, (S)-(1-(4-((1-(3,4-dimethoxyphenyl)-1H-imidazol-4-yl)amino)pyrrolo[2,1-f][1,2,4]triazin-2-yl)pyrrolidin-2-yl)methanol] | < 100
23 | COc1cc(-n2cnc(Nc3nc(N4CCC[C@H]4CO)c4ccsc4n3)c2)cc(OC)c1OC [Compound 133b, (S)-(1-(2-((1-(3,4,5-trimethoxyphenyl)-1H-imidazol-4-yl)amino)thieno[2,3-d]pyrimidin-4-yl)pyrrolidin-2-yl)methanol] | < 100
24 | c1ccc(C2CCCN2c2nc(Nc3cn(-c4ccccc4)cn3)c3occc3n2)cc1 (centres unmarked) [Compound 40a, N-(1-phenyl-1H-imidazol-4-yl)-2-(2-phenylpyrrolidin-1-yl)furo[3,2-d]pyrimidin-4-amine] | < 100
25 | c1ccc(C2CCCN2c2nc(Nc3cn(C4CCC4)cn3)c3cccn3n2)nc1 (centres unmarked) [Compound 37c, N-(1-cyclobutyl-1H-imidazol-4-yl)-2-(2-(pyridin-2-yl)pyrrolidin-1-yl)pyrrolo[2,1-f][1,2,4]triazin-4-amine] | < 100
26 | COc1cc(-n2cnc(Nc3nc(N4CCC[C@H]4C(N)=O)c4c(ccn4S(=O)(=O)c4ccc(C)cc4)n3)c2)cc(OC)c1OC [Compound 191b, (S)-1-(5-tosyl-2-((1-(3,4,5-trimethoxyphenyl)-1H-imidazol-4-yl)amino)-5H-pyrrolo[3,2-d]pyrimidin-4-yl)pyrrolidine-2-carboxamide] | < 100
27 | COc1cc(-n2cnc(Nc3nc(N4CCC[C@H]4CO)nc4c3ccn4S(=O)(=O)c3ccc(C)cc3)c2)cc(OC)c1OC [Compound 141c, (S)-(1-(7-tosyl-4-((1-(3,4,5-trimethoxyphenyl)-1H-imidazol-4-yl)amino)-7H-pyrrolo[2,3-d]pyrimidin-2-yl)pyrrolidin-2-yl)methanol] | < 100
28 | COc1cc(-n2cnc(Nc3cc4ccccc4cn3)c2)cc(OC)c1OC [Compound 195b, N-(1-(3,4,5-trimethoxyphenyl)-1H-imidazol-4-yl)isoquinolin-3-amine] | < 100
29 | COc1cc(-n2cnc(Nc3nc(N4CCC[C@H]4CO)c4cccnc4n3)c2)cc(OC)c1OC [Compound 174b, (S)-(1-(2-((1-(3,4,5-trimethoxyphenyl)-1H-imidazol-4-yl)amino)pyrido[2,3-d]pyrimidin-4-yl)pyrrolidin-2-yl)methanol] | < 100
30 | COc1cc(-n2cnc(Nc3nc(N4CCC[C@H]4CO)nc4c3CCNC4)c2)cc(OC)c1OC [Compound 183c, (S)-(1-(4-((1-(3,4,5-trimethoxyphenyl)-1H-imidazol-4-yl)amino)-5,6,7,8-tetrahydropyrido[3,4-d]pyrimidin-2-yl)pyrrolidin-2-yl)methanol] | < 100
31 | Cn1cnc(Nc2nc(N3CCC[C@@H]3CO)nc3ccoc23)c1 [Compound 3a, (R)-(1-(4-((1-methyl-1H-imidazol-4-yl)amino)furo[3,2-d]pyrimidin-2-yl)pyrrolidin-2-yl)methanol] | > 1000
32 | COc1cc(-n2cnc(Nc3nc(N4CCC[C@H]4CO)c4ncsc4n3)c2)cc(OC)c1OC [Compound 150c, (S)-(1-(5-((1-(3,4,5-trimethoxyphenyl)-1H-imidazol-4-yl)amino)thiazolo[5,4-d]pyrimidin-7-yl)pyrrolidin-2-yl)methanol] | < 100
